According to patent publication US6072057A, “1H-4(5)-cyclo-substituted imidazole derivatives as histamine H3 receptor agents” (Gliatech Inc., priority 1998, dated 2000):
Read-outs that look alike come from different tables or passages of the source.

Columns and labels:
Histamine H3 receptor = target: T1, Histamine H3 receptor (Rattus norvegicus, UniProt Q9QYN8); assay: In Vitro Histamine H3 Receptor Binding Analysis ([3H]-Nα-methylhistamine, rat cortical membranes); conditions: pH 7.4, 25° C., 40 minutes
T1 construct: Rat cortices were mechanically homogenized; from tissue; host or cells: rat cerebral cortex membranes
Method: Histamine H3 receptor affinity was determined in rat cortical membranes using the H3 selective agonist ligand, [^3 H]-N^α -methylhistamine (78.9 Ci/mmole, DuPont NEN Research Products, Boston, Mass.) according to the method of West et al., (1990) Mol. Pharmacol. 38: 610-613 with modifications. Briefly, animals were sacrificed by decapitation and the cerebral cortex was rapidly removed. Rat cortices were mechanically homogenized with an Omni 1000 motor driven homogenizer in 10 volumes (wt/vol) of Krebs-Ringers Hepes buffer (pH 7.4) containing the following protease inhibitors; EDTA (10 mM), PMSF (0.1 mM), chymostatin (0.2 mg/50 mL) and leupeptin (0.2 mg/50 mL). The homogenate was centrifuged in a Sorvall at ~40,000× g for 30 min. […] Protein concentrations were determined by Coomassie Plus Protein Assay (Pierce, Rockford, Ill.).
The binding assay was carried out in polypropylene tubes in a total volume of 0.4 ml of 50 mM Na^+ Phosphate buffer (pH 7.4), containing 150-200 μg of tissue protein, 0.8-1.2 nM [^3 H]-N^α -methylhistamine and 0.3 to 10,000 nM GT-2016. […] Filters were transferred to polyethylene minivials and counted in 3.5 ml of scintillation fluid (Ecolume, ICN Biomedicals, Inc.). […] Saturation and competition experiments were analyzed with the ReceptorFit saturation and competition curve fittingprograms (Lundon Software, Inc., Cleveland, OH).

H3 histamine receptor = conditions: tested as a racemic mixture; cited from earlier work
[1] = intraventricular, rabbits; cited from earlier work
[2] = intraventricular, saline and pentobarbital-treated rats; cited from earlier work
H3 receptor [3] = conditions: cited from earlier work
H3 receptor [4] = conditions: cat (Lin et al., 1990); cited from earlier work
H3 receptor [5] = conditions: rats; cited from earlier work
[6] = system: synthesis and release of histamine; conditions: in vivo studies; cited from earlier work

T1 sequence (Q9QYN8 whole entry): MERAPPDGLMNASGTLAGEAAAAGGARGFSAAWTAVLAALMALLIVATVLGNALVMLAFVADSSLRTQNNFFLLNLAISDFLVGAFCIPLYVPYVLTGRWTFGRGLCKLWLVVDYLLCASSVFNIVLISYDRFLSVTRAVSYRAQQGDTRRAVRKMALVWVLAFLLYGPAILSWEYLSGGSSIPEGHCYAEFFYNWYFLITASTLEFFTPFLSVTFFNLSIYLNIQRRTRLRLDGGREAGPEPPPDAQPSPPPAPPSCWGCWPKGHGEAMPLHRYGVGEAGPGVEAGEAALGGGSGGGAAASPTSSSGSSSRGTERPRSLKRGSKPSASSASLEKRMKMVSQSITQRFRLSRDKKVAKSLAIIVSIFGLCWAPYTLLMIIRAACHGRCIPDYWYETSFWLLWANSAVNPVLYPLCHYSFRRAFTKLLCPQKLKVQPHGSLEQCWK

## NC1CCC(c2c[nH]cn2)CC1 (stereo not drawn)
Histamine H3 receptor
  Ki: 20 nM

## NC1CC1c1c[nH]cn1 (racemic) [2-(4-imidazoyl)-cyclopropylamine]
H3 histamine receptor
  H3 histamine receptor agonist activity: moderate

## NCCc1c[nH]cn1 [histamine]
[1]
  arousal EEG pattern: induces the appearances of an arousal EEG pattern
[2]
  spontaneous locomotor activity, grooming and exploratory behavior: increased
H3 receptor [3]
  stimulation of the H3 autoreceptor: capable of stimulating this autoreceptor

## S=C(NC1CCCCC1)N1CCC(c2cnc[nH]2)CC1 [thioperamide]
H3 receptor [4]
  wakefulness: enhanced wakefulness in a dose-dependent fashion
H3 receptor [5]
  slow wave and REM sleep: decrease slow wave and REM sleep
  wakefulness: increase wakefulness
[6]
  synthesis and release of histamine: can increase
